From patent EP4537815A1, “COMPOSITION COMPRISING A LASSO PEPTIDE […] A PHARMACEUTICALLY ACCEPTABLE NANOEMULSION” (priority 2023, dated 2025)
Entries after “also recorded” stand apart in the source; their conditions may differ. Where a SMILES comes first, the peptide text is derived from it. Bridges are numbered along the chain shown (N, C = ends).

Columns and labels:
[1] = test system: E. faecalis V583 (exhibiting VanB resistance); assay: Vancomycin MIC by microdilution (CLSI) in GM17, VanB-resistant strain, with or without lasso peptide; assay type: cell-based; conditions: VanB-type
Method: (§1) An evaluation of bacterial growth was performed in vitro to assess the bacterial response to either vancomycin or bacitracin, in the absence or in the presence of either sviceucin or siamycin I.
(§2) Each strain was cultured at 37 °C in M17 medium (Terzaghi and Sandine 1975) supplemented with 0.5 % (weight/volume) glucose (GM17 medium). Overnight cultures are grown in GM17 broth and are used to inoculate the cultures for MIC measurement.
(§3) Lyophilized lasso peptides were solubilized first at 800 µM in a 1:1 solution of sterilized pure water and methanol. This stock is used for subsequent dilutions in GM17.
(§4) The measurement of the minimal inhibitory concentration (MIC) of antibiotic (either vancomycin or bacitracin) was determined by the microdilution method in accordance with the guidelines of the Clinical and Laboratory Standards Institute (CLSI 2012), with GM17 medium used as a growth medium. Subsequent 2-fold serial dilutions of the antibiotic (either vancomycin or bacitracin) were performed to obtain concentrations ranging from 0.5 to 512 µg/mL.
(§5) The lasso peptides (either siamycin I or sviceucin) were added for the relevant conditions at a final concentration of 10 µM, 5 µM or 2.5 µM. Bacterial strains from overnight cultures were added with an inoculum of 5 x 10^5 CFU/mL. The MIC corresponds to the lowest concentration in the wells where no growth is observed. […]

[2] = test system: E. faecium Bi21 (exhibiting VanA resistance), E. faecium Bi22 (exhibiting VanA resistance); assay: Vancomycin MIC by microdilution (CLSI) in GM17, VanA-resistant strains, with or without lasso peptide; assay type: cell-based
Method: as §1, §2, §3, §4, §5

[3] = test system: bacitracin resistant Gram-positive bacteria belonging to the Enterococcus genus; assay: Bacitracin MIC by microdilution (CLSI) in GM17, with or without lasso peptide; assay type: cell-based
Method: as §1, §2, §3, §4, §5

[4] = test system: E. faecalis V583, E. faecium Bi21, E. faecium Bi22; assay: In vitro bacterial growth in the presence of the lasso peptide alone; assay type: cell-based, Enterococcus
Method: as §1, §2, §3
The lasso peptides (either siamycin I or sviceucin) were added for the relevant conditions at a final concentration of 10 µM, 5 µM or 2.5 µM. Bacterial strains from overnight cultures were added with an inoculum of 5 x 10^5 CFU/mL. The MIC corresponds to the lowest concentration in the wells where no growth is observed.

Row | SMILES | effect on vancomycin resistance ([1]; lasso peptide at 2.5 µM combined with vancomycin) | Vancomycin MIC (VanA-resistant strains) ([2]; in the presence of the lasso peptide at 5 µM) | effect on vancomycin resistance ([2]; lasso peptide at 2.5 µM combined with vancomycin, VanA-type) | effect on bacitracin resistance ([3]; lasso peptide at 2.5 µM combined with bacitracin) | Growth in the presence of the lasso peptide alone ([4]; lasso peptide at 2.5 µM) | Growth in the presence of the lasso peptide alone ([4]; lasso peptide at 5 µM) | effect on vancomycin resistance ([1]; lasso peptide at 10 µM combined with vancomycin) | effect on bacitracin resistance ([3]; lasso peptide at 10 µM combined with bacitracin)
1 | CC[C@H](C)[C@@H]1NC(=O)[C@H](C)NC(=O)[C@H](Cc2ccc(O)cc2)NC(=O)CNC(=O)[C@@H]2CSSC[C@@H]3NC(=O)C[C@H](NC(=O)[C@H](CC(N)=O)NC(=O)[C@H](CSSC[C@@H](C(=O)N[C@@H](Cc4ccccc4)C(=O)N[C@@H](Cc4c[nH]c5ccccc45)C(=O)O)NC(=O)[C@H](C(C)C)NC1=O)NC(=O)[C@H](CO)NC(=O)CNC(=O)[C@H](C(C)C)NC(=O)CNC(=O)[C@H](CC(C)C)NC3=O)C(=O)N[C@@H](Cc1ccccc1)C(=O)N[C@@H](C)C(=O)NCC(=O)N2 [Siamycin I, siamycin I] (CLGVGSCNDFAGCGYAIVCFW-OH; disulfide 1-13, 7-19 (inferred); lactam N-9 (inferred); C-terminus assumed) | reverses vancomycin resistance | 0 µg/mL | reverses vancomycin resistance | reverses bacitracin resistance | Growth slowed down but not inhibited | exhibits a growth inhibition activity; also recorded: Growth inhibited | – | –
2 | CC[C@H](C)[C@@H]1NC(=O)[C@H](Cc2c[nH]c3ccccc23)NC(=O)[C@H](C)NC(=O)[C@H]([C@@H](C)O)NC(=O)CNC(=O)[C@@H]2CSSC[C@@H]3NC(=O)C[C@H](NC(=O)[C@H]([C@@H](C)O)NC(=O)[C@H](CSSC[C@@H](C(=O)N[C@H](C(=O)O)C(C)C)NC1=O)NC(=O)[C@H](CC(=O)O)NC(=O)CNC(=O)CNC(=O)[C@H](Cc1c[nH]c4ccccc14)NC(=O)[C@H](C(C)C)NC3=O)C(=O)N[C@@H](Cc1ccccc1)C(=O)N[C@@H](CC(C)C)C(=O)NCC(=O)N2 [Sviceucin, sviceucin] (CVWGGDCTDFLGCGTAWICV-OH; disulfide 1-13, 7-19 (inferred); lactam N-9 (inferred); C-terminus assumed) | – | – | – | – | – | – | reverses vancomycin resistance | reverses bacitracin resistance
